Reference: ChEMBL document CHEMBL4024772, “Aniline-Based Inhibitors of Influenza H1N1 Virus Acting on Hemagglutinin-Mediated Fusion” (J Med Chem, 2018)

Assays:
Test in all cases: microbe, parasite or virus in culture
Format in all cases: functional, cell-based
Conditions in all cases: MDCK
Influenza A virus [1] = tested on: Influenza A virus
Influenza A virus [2] = tested on: Influenza A virus; remark: listed apart in the source
Influenza A virus [3] = tested on: Influenza A virus; remark: listed apart in the source

| SMILES | EC50 (Influenza A virus [1]) [µM] | EC50 (Influenza A virus [2]) [µM] | EC50 (Influenza A virus [3]) [µM] |
| --- | --- | --- | --- |
| CC(C)c1ccccc1NCCN1CCCCCC1 | > 100 | 1.5 | > 100 |
| CC(C)c1ccccc1NCCN1CCCCC1 | > 100 | 2.3 | > 100 |
| NC(=O)c1ncn([C@@H]2O[C@H](CO)[C@@H](O)[C@H]2O)n1 [RIBAVIRIN] | – | 15 | – |
